Assay results: ChEMBL document CHEMBL1131494, “Novel 17-azolyl steroids, potent inhibitors of human cytochrome 17 alpha-hydroxylase-C17,20-lyase (P450(17) alpha): potential agents for the treatment of prostate cancer” (J Med Chem, 1998); call rule not given here

Columns and labels:
[1] = target: T1, Steroid 17-alpha-hydroxylase/17,20 lyase (Homo sapiens, UniProt P05093); test: Inhibition of human testicular microsomal Cytochrome P450 17A1
T1 sequence (P05093 whole entry): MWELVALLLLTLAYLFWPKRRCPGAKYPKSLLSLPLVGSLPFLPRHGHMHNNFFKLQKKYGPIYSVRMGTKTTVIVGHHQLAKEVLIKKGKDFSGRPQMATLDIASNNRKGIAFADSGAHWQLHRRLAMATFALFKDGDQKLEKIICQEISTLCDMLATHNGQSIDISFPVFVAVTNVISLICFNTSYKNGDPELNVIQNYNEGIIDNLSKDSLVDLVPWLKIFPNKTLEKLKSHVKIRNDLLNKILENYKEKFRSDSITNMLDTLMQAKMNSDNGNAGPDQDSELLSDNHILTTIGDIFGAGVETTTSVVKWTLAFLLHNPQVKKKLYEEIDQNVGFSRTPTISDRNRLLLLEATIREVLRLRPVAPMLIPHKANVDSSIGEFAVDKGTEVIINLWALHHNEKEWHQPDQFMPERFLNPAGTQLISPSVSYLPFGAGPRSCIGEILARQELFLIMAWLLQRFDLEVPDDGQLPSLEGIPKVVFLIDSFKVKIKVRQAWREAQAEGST

[2] = target: T2, Steroid 17-alpha-hydroxylase/17,20 lyase (Rattus norvegicus, UniProt P11715); test: Inhibition of rat cytochrome P450 17A1
T2 sequence (P11715 whole entry): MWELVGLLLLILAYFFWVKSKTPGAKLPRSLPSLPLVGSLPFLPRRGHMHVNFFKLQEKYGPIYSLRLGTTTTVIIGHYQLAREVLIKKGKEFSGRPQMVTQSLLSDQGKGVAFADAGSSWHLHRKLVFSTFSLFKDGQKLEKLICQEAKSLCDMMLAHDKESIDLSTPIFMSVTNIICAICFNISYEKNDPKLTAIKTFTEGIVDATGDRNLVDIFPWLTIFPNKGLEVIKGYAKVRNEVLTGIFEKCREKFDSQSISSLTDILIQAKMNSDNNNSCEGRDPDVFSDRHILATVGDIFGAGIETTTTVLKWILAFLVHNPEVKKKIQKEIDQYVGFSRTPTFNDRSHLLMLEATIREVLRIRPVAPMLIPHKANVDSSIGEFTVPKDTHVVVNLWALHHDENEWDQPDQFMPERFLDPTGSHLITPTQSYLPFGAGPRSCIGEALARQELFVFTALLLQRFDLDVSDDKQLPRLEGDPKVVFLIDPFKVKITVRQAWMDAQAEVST

[3] = Inhibition of human steroid 5-alpha-reductase
[4] = target: T1, Steroid 17-alpha-hydroxylase/17,20 lyase
Description: Binding affinity for Cytochrome P450 17A1 (17-alpha-hydroxypregnenolone Km=560 nM)

[5] = target: T1, Steroid 17-alpha-hydroxylase/17,20 lyase; test: Inhibition of human testicular microsomal cytochrome P450 17A1 at 150 nM; NI = No inhibition; settings: 0.15 µM
[6] = target: T1, Steroid 17-alpha-hydroxylase/17,20 lyase; remark: listed apart in the source
[7] = target: T2, Steroid 17-alpha-hydroxylase/17,20 lyase; test: Inhibition of rat Cytochrome P450 17A1
[8] = target: T1, Steroid 17-alpha-hydroxylase/17,20 lyase; test: Inhibition of human testicular microsomal cytochrome P450 17A1 at 150 nM; NI = No inhibition; settings: 0.15 µM
[9] = target: T1, Steroid 17-alpha-hydroxylase/17,20 lyase; test: Inhibition of human testicular microsomal cytochrome P450 17A1 at 150 nM; no inhibition

| SMILES | IC50 [1] | IC50 [3] | Ki [4] | IC50 [7] | also measured |
| --- | --- | --- | --- | --- | --- |
| C[C@]12CC[C@H](O)CC1=CC[C@@H]1[C@@H]2CC[C@]2(C)C(n3cncn3)=CC[C@@H]12 | 90 nM | 160000 nM | 23 nM | – | IC50 [2]: 26 nM |
| C[C@]12CC[C@H](O)CC1=CCC1C2CC[C@]2(C)C(n3ncnn3)=CCC12 (stereo partly drawn) | – | – | – | – | Inhibition [5]: Not Active |
| C[C@]12CCC(=O)C=C1CCC1C2CC[C@]2(C)C(n3ccnn3)=CCC12 (stereo partly drawn) | 19 nM | 198 nM | – | – | Ki [6]: 8 nM; IC50 [2]: 9 nM |
| C[C@]12CC[C@H](O)CC1=CCC1C2CC[C@]2(C)C(n3ccnc3)=CCC12 (stereo partly drawn) | 8 nM | 400000 nM | 1.2 nM | 9 nM | – |
| C[C@]12CC[C@H](O)CC1=CCC1C2CC[C@]2(C)C(n3cnnn3)=CCC12 (stereo partly drawn) | – | – | – | – | Inhibition [8]: Not Active |
| C[C@]12CCC(=O)C=C1CCC1C2CC[C@]2(C)C(n3cncn3)=CCC12 (stereo partly drawn) | 55 nM | 152 nM | 41 nM | 11 nM | – |
| C[C@]12CC[C@H](O)CC1=CCC1C2CC[C@]2(C)C(n3ccnn3)=CCC12 (stereo partly drawn) | 13 nM | 10000 nM | 1.4 nM | 10 nM | – |
| C[C@]12CCC(=O)C=C1CCC1C2CC[C@]2(C)C(n3ccnc3)=CCC12 (stereo partly drawn) | 7 nM | 142 nM | 1.9 nM | 8 nM | – |
| CC(C)(C)NC(=O)[C@H]1CC[C@H]2[C@@H]3CC[C@H]4NC(=O)C=C[C@]4(C)[C@H]3CC[C@]12C [FINASTERIDE] | – | 33 nM | – | – | – |
| C[C@]12CC[C@H](O)CC1=CCC1C2CC[C@]2(C)C(n3nccn3)=CCC12 (stereo partly drawn) | – | – | – | – | IC50 [9]: Not Active |
